Values of other authors, collected in PMC9773016, “Strebluses E–H, four new stilbene-like derivatives from the stems of Streblus ilicifolius” (RSC Advances, 2022).

Biological target: Mushroom tyrosinase (Agaricus bisporus, UniProt C7FF04)
Parameters: method as in PMID 34306141, PMID 33939585
Settings: value from previous study of the same authors; read-out: tyrosinase inhibitory effect IC50

Mushroom tyrosinase, sequence (C7FF04 1-392): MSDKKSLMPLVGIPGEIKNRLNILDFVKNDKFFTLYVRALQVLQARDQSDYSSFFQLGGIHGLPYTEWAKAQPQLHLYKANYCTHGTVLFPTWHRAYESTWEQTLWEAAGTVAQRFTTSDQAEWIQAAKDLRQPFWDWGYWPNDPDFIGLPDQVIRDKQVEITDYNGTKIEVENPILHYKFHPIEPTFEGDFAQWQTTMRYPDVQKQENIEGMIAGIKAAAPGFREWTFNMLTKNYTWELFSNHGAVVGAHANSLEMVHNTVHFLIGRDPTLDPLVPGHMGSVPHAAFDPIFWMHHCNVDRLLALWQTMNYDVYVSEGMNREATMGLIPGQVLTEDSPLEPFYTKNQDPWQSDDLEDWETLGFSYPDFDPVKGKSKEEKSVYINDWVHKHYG

For `CC(C)=CC[C@@]12OC(C)(C)O[C@@H]1CC(/C=C/c1ccc(O)cc1O)=CC2=O` [Streblus C], the IC50 is given as 0.01 µM.
